Consider 22 compounds from patent US8309563B2, “Quinazoline derivatives useful as anti-tumor medicament” (Shanghai Allist Pharmaceuticals, Inc., priority 2006, dated 2012).

pIC50: −log10 of the molar value. Like-named read-outs stand apart in the source and are kept apart here. Some results are limits rather than exact numbers.

The test system of data set [1] is A431 cells (human epidermoid squamous carcinoma cell). The data set is described as follows: Anti-tumor experiment, improved MTT method, A431 cells, 72 h. The format is cell-based. As for the experimental part: The inventive compounds were formulated into 5 concentrations. […] The incubation was continued for another 6 h, and 100 μl SDS was added to end the reaction.
1. Cell Line: A431 Human Epidermoid Squamous Carcinoma Cell

Data set [2] has as its system BT-474: Human Breast Cancer Cell. The data set is described as follows: Inhibition of cell proliferation, SRB method, BT-474 cells, 5 days. The format is cell-based. Particulars: 120 h, Logit method, read-out: BT474 IC50. The procedure: 2. Cell Line: BT-474: Human Breast Cancer Cell The cells were incubated with compounds of various concentrations (10-0.001 μm individually) for 5 days. The inhibition of cell proliferation was tested according to the SRB method, and the inhibitory rate was figure out. According to the inhibitory rate, the IC50 was calculated by the Logit method. The anti-tumor activities in vitro were compared.

The next data set concerns the target T1, Erb-B2 (Homo sapiens, UniProt P04626).
T1 construct: After treated with various compounds for 1.5 h, the cells were collected, cracked; endogenous in cells; host or cells: BT474 human breast cancer cells
Nature of the data set: Inhibitory effect on the phosphorylation activity of Erb-B2 in BT474 cells (SDS-PAGE/blot, ECL). The format is cell-based. Particulars: BT474 cells treated […]; FIG. 1; comparison with Iressa. As for the experimental part:
The inhibitory effect of compound 8 and compound 14 on the phosphorylation activity of Erb-B2: The concentration of the human breast cancer cells BT474 were adjusted to a suitable concentration, and inoculated into a plate. After treated with various compounds for 1.5 h, the cells were collected, cracked and the protein was adjusted to the same quantity. Following the protein-denaturation, SDS-PAGE was conducted, and transferred to nitric acid cellulose film; Hybriding with the anti-phosphorylation antibody (mono-anti), anti-β-tublin antibody (mono-anti) and anti-mouse-IgG antibody (bi-anti) respectively; Assayed by the ECL kit and the X-ray plate was exposed. According to the size and the density of the corresponding protein band, the inhibitory effect on Erb-B2 kinases can be evaluated.

Data set [3] relates to human skin squamous cancer cell A431 grafted in a nude mouse. The data set is described as follows: Anti-tumor effect on human skin squamous cancer cell A431 grafted in a nude mouse. The format is in vivo. As for the experimental part: A well-growth solid tumor of A431 was selected and incised into several pieces with the size of 2-3 mm; each was grafted into the right armpit of a mouse subcutaneously with a trocar respectively. 5 After 7days, the test compounds were administrated by gastric perfusion through the mouth for 13 days continuously. The long span (a) and the short span (b) of the tumor were measured with a vernier caliper every 4 days. According to the formula V=ab^2/2, the volume (mm^3) of the tumor could be calculated. The test animals were neck-off killed 23 days after the grafting. The test animals were anatomized to obtain the tumor. The tumors were weighed and the inhibitory rate was calculated.

Where [4] appears, read: Homo sapiens, A-431, 72 h, A431 cells, 72 h, class symbols, read-out: IC50.
Setting [5] is: Homo sapiens, A-431, A431 cells, * = two results from two experiments, read-out: A431 IC50.
[6] abbreviates: A431 cells, * = two results from two experiments, read-out: A431 IC50.

T1 sequence (P04626 23-1255): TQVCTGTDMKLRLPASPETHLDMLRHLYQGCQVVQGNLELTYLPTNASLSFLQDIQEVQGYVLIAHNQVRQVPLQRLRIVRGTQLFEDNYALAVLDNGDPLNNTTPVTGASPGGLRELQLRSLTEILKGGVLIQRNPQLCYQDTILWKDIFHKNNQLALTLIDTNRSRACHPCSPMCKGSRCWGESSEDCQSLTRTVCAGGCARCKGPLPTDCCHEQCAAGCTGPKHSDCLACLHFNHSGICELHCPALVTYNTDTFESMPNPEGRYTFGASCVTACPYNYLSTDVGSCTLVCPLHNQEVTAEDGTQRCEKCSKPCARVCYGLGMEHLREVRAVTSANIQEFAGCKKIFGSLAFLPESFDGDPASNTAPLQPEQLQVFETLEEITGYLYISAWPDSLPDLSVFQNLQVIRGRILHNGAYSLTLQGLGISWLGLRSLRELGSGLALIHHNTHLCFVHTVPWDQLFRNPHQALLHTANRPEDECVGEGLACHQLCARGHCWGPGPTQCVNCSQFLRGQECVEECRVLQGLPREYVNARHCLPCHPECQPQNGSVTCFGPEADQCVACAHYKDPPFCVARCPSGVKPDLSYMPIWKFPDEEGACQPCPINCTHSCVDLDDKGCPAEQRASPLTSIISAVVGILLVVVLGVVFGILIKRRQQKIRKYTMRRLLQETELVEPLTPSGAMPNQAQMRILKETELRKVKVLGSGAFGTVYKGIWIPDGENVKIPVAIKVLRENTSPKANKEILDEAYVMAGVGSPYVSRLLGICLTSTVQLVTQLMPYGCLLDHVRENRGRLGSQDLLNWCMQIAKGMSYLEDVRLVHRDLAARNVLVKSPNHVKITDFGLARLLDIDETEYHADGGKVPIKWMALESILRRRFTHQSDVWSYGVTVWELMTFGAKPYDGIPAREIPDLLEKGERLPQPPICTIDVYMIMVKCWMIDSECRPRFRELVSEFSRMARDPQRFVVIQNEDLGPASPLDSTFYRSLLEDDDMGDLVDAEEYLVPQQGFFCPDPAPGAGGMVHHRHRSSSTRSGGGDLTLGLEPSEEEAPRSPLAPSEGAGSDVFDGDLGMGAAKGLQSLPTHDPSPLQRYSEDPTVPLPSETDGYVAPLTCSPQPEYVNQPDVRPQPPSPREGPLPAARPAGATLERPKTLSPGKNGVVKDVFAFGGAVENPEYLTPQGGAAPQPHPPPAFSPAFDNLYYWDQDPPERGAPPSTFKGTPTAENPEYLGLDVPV

In the case of `CN(C)C/C=C/C(=O)Nc1ccc2ncnc(Nc3ccc(OCc4cccc(F)c4)c(Cl)c3)c2c1` [Example 10, N-{4-[3-chloro-4-(3-fluorobenzyloxy)-phenylamino]-quinazolin-6-yl}-E,4-(dimethylamino)-but-2-enamide], the pIC50 in data set [1] (setting [4]) is 4.30 to 5.00.

In the case of `C=CC(=O)Nc1cc2c(Nc3ccc(OCc4cccc(F)c4)c(Cl)c3)ncnc2cc1Cl` [Example 16, N-{4-[3-chloro-4-(3-fluorobenzyloxy)-phenylamino]-7-chloro-quinazolin-6-yl}-acrylamide], in data set [1] (setting [4]), the pIC50 is 5.00 to 6.00.

In the case of `COc1ccc(-c2ccc3ncnc(Nc4ccc(OCc5cccc(F)c5)c(Cl)c4)c3c2)cc1` [Example 23, 4-[3-chloro-4-(3-fluorobenzyloxy)-phenylamino]-6-(4-methoxy-phenyl)-quinazoline], the pIC50 in data set [1] (setting [4]) is 4.30 to 5.00; in data set [1] (setting [5]), 4.62; in data set [2], 6.77.

As for `C=CC(=O)Nc1cc2c(Nc3ccc(OCc4cccc(F)c4)c(Cl)c3)ncnc2cc1OC` [Example 14], the negative-log IC50 (pIC50) in data set [1] (setting [4]) is 5.00 to 6.00; in data set [1] (setting [5]) it was 5.76; in data set [2], 8.16. Also, the “inhibitory activity on phosphorylation of Erb-B2 compared with Iressa” value on Erb-B2 is listed as “more superior inhibitory activity”.

For `CN(C)C/C=C/C(=O)Nc1cc2c(Nc3ccc(OCc4cccc(F)c4)c(Cl)c3)ncnc2cc1Cl` [Example 15, N-{4-[3-chloro-4-(3-fluorobenzyloxy)-phenylamino]-7-chloro-quinazolin-6-yl}-E,4-(dimethylamino)-but-2-enamide], the pIC50 in data set [1] (setting [4]) is 5.00 to 6.00.

On to `CC(=O)OCc1cccc(-c2ccc3ncnc(Nc4ccc(OCc5cccc(F)c5)c(Cl)c4)c3c2)c1` [Example 25, 4-[3-chloro-4-(3-fluorobenzyloxy)-phenylamino]-6-(3-acetoxymethyl-phenyl)-quinazoline], for which the pIC50 in data set [1] (setting [4]) is more than 6.00; in data set [2], 7.21.

Consider `Fc1cccc(COc2ccc(Nc3ncnc4ccc(Br)cc34)cc2Cl)c1` [Example 22, 4-[3-chloro-4-(3-fluorobenzyloxy)-phenylamino]-6-bromo-quinazoline], for which the pIC50 in data set [1] (setting [4]) is 4.30 to 5.00.

For the compound `CS(=O)(=O)OCc1ccc(-c2ccc3ncnc(Nc4ccc(OCc5cccc(F)c5)c(Cl)c4)c3c2)o1` [Example 28, 4-[3-chloro-4-(3-fluorobenzyloxy)-phenylamino]-6-(5-methanesulfonyloxymethylene-furan-2-yl)-quinazoline], the pIC50 in data set [1] (setting [4]) was 5.00 to 6.00; in data set [1] (setting [5]), 5.69; in data set [2], 7.31.

In the case of `COc1cc2ncnc(Nc3ccc(OCc4cccc(F)c4)c(Cl)c3)c2cc1NC(=O)/C=C/CN(C)C` [Example 13, N-{4-[3-chloro-4-(3-fluorobenzyloxy)-phenylamino]-7-methoxy-quinazolin-6-}-E-4-(dimethylamino)-but-2-enamide], the pIC50 in data set [1] (setting [4]) is 5.00 to 6.00.

`Oc1ccc2ncnc(Nc3ccc(OCc4cccc(F)c4)c(Cl)c3)c2c1` [Example 18, 4-[3-chloro-4-(3-fluorobenzyloxy)-phenylamino]-6-hydroxy-quinazoline]: in data set [1] (setting [4]), the pIC50 is 4.30 to 5.00.

Regarding `COCCOc1ccc2ncnc(Nc3ccc(OCc4cccc(F)c4)c(Cl)c3)c2c1` [Example 19], the pIC50 in data set [1] (setting [6]) is 5.77; in data set [1] (setting [4]), 5.00 to 6.00; in data set [1] (setting [5]) it was 5.48; in data set [2], 7.06.

Consider `COc1cc2ncnc(Nc3ccc(OCc4cccc(F)c4)c(Cl)c3)c2cc1OC` [Example 21, 4-[3-chloro-4-(3-fluorobenzyloxy)-phenylamino]-6,7-dimethoxy-quinazoline], for which the negative logarithm of the IC50 (pIC50) in data set [1] (setting [4]) was 5.00 to 6.00; in data set [1] (setting [5]), 5.66; in data set [2] it was 6.72.

For the compound `C=CC(=O)Nc1ccc2ncnc(Nc3ccc(OCc4cccc(F)c4)c(Cl)c3)c2c1` [Example 8, N-{4-[3-chloro-4-(3-fluorobenzyloxy)-phenylamino]-quinazolin6-yl}-acrylamide], the pIC50 in data set [1] (setting [6]) is 6.96; in data set [1] (setting [4]), more than 6.00; in data set [1] (setting [5]) it was 6.74; in data set [2], 9.00. Moreover, the “inhibitory activity on phosphorylation of Erb-B2 compared with Iressa” value against Erb-B2 is listed as “more superior inhibitory activity”. Also, the inhibition % is listed as 29.99% in data set [3] (25 mg/kg ig × 13, by tumor weight); 38.67% in data set [3] (50 mg/kg ig × 13, by tumor weight); 43.63% in data set [3] (100 mg/kg ig × 13, by tumor weight). The “Weight of the tumor (g) x ± SD” value in data set [3] (25 mg/kg ig × 13, day 23 after grafting) is on record as 0.79 ± 0.20 g; in data set [3] (50 mg/kg ig × 13, day 23 after grafting), 0.69 ± 0.17 g; in data set [3] (100 mg/kg ig × 13, day 23 after grafting), 0.64 ± 0.23 g. The “Weight of the test animals (g) (tumor-off)” value in data set [3] (25 mg/kg ig × 13, nude mouse A431 graft) is 21.58 ± 2.18 g; in data set [3] (50 mg/kg ig × 13, nude mouse A431 graft), 22.87 ± 3.96 g; in data set [3] (100 mg/kg ig × 13, nude mouse A431 graft) it was 22.13 ± 1.83 g.

As for `OCc1ccc(-c2ccc3ncnc(Nc4ccc(OCc5cccc(F)c5)c(Cl)c4)c3c2)o1` [Example 27, 4-[3-chloro-4-(3-fluorobenzyloxy)-phenylamino]-6-(5-hydroxymethyl-furan-2-yl)-quinazoline], the pIC50 in data set [1] (setting [6]) was 5.99; in data set [1] (setting [4]), 5.00 to 6.00; in data set [1] (setting [5]) it was 5.82; in data set [2], 7.64.

Turning to `COCCOCc1cccc(-c2ccc3ncnc(Nc4ccc(OCc5cccc(F)c5)c(Cl)c4)c3c2)c1` [Example 26, 4-[3-chloro-4-(3-fluorobenzyloxy)-phenylamino]-6-[3-(methoxyethoxymethylene)-phenyl]-quinazoline], the pIC50 was 5.00 to 6.00 in data set [1] (setting [4]), 5.39 in data set [1] (setting [5]) and 5.18 in data set [2].

Take `CN(C)Cc1ccc(-c2ccc3ncnc(Nc4ccc(OCc5cccc(F)c5)c(Cl)c4)c3c2)o1` [Example 29, 4-[3-chloro-4-(3-flurobenzyloxy)-phenylamino]-6-(5-dimethylaminomethyl-furan-2-yl)-quinazoline]: the pIC50 in data set [1] (setting [4]) was 5.00 to 6.00.

With `OCc1cccc(-c2ccc3ncnc(Nc4ccc(OCc5cccc(F)c5)c(Cl)c4)c3c2)c1` [Example 24, 4-[3-chloro-4-(3-fluorobenzyloxy)-phenylamino]-6-(3-hydroxymethyl-phenyl)-quinazoline], the pIC50 in data set [1] (setting [4]) was 5.00 to 6.00; in data set [1] (setting [5]), 5.41; in data set [2], 7.07.

In the case of `COc1cc2ncnc(Nc3ccc(OCc4cccc(F)c4)c(Cl)c3)c2cc1OCCCN1CCOCC1` [Example 30, 4-[3-chloro-4-(3-fluorobenzyloxy)-phenylamino]-6-(3-(4-morpholino)propoxy)-7-methoxy-quinazoline], the results for the pIC50 in data set [1] (setting [4]), in data set [1] (setting [5]) and in data set [2] were 5.00 to 6.00, 5.03 and 6.62, respectively.

Regarding `CN(C)C/C=C/C(=O)Nc1cc2c(Nc3ccc(OCc4cccc(F)c4)c(Cl)c3)ncnc2cc1OCC(F)(F)F` [Example 12], the pIC50 in data set [1] (setting [4]) is more than 6.00.

`Cc1ccc(S(=O)(=O)Nc2ccc3ncnc(Nc4ccc(OCc5cccc(F)c5)c(Cl)c4)c3c2)cc1` [Example 9, N-{4-[-3-chloro-4-(3-fluorobenzyloxy)-phenylamino]-quinazolin-6-yl}-p-methylbenzenesulfonamide]: the pIC50 is 5.00 to 6.00 in data set [1] (setting [4]), 5.91 in data set [1] (setting [5]) and 6.55 in data set [2].

As for `Fc1cccc(COc2ccc(Nc3ncnc4ccc(OCCCN5CCOCC5)cc34)cc2Cl)c1` [Example 20, 4-[3-chloro-4-(3-fluorobenzyloxy)-phenylamino]-6-[3-(4-morpholino)-propoxy]-quinazoline], the results for the pIC50 in data set [1] (setting [4]), in data set [1] (setting [5]) and in data set [2] were more than 6.00, 5.77 and 7.10, respectively.

Consider `CC(=O)Oc1ccc2ncnc(Nc3ccc(OCc4cccc(F)c4)c(Cl)c3)c2c1` [Example 17, O-{4-[-3-chloro-4-(3-fluorobenzyloxy)-phenylamino]-quinazolin-6-yl}-acetate], for which the pIC50 is more than 6.00 in data set [1] (setting [4]), 5.46 in data set [1] (setting [5]) and 7.37 in data set [2].
